Source: US7264947B2, “Activity dependent neurotrophic factor III (ADNF III)” (United States of America, as represented by the Secretary …, priority 1997, dated 2007)
Read-outs that look alike come from different tables or passages of the source.

Assays:
[1] = tested on: cerebral cortical cultures; format: cell-based, newborn rats; conditions: for dilutions giving significant neuroprotection against tetrodotoxin: dilutions of a 1 mg/ml protein solution (E. coli extract) in PBS, 1 μM tetrodotoxin, five days
[2] = tested on: choline acetyl transferase; test: brain ChAT (choline acetyl transferase) activity in ApoE-deficient mice; format: in vivo; conditions: daily subcutaneous injections from birth to 14 days, measured at 21 days
Method: The graph depicts incorporation of radio-labeled choline into acetylcholine. Experiments were conducted as described. Apo-E deficient mice are designated: ApoE; 100% activity in the control (C57B6) mice indicated 669758.4 pmole/mg protein/min. As the experiments were repeated 3-5 times the results were standardized against the control calibrated at 100% per each experiment. ApoE-deficient mice daily injected with peptides are designated ADNF-14, ADNF-9, and NAP, respectively.
ChAT activity was measured according to published procedures (Formum et al., Neurochem. 24:407-409 (1975)). Brains were homogenized with 10 volumes of 50 mM phosphate buffer containing 300 mM NaCl, 20 mM EDTA, and 0.5% triton. The homogenates were centrifuged at 12,000×g for 15 min., and […] of supernatant was mixed with […] of a solution of […] ^14C-acetyl CoA ([…] NEN), 20 mM acetylcholine, 1.6 mM choline chloride, 0.25 mM eserine, and phosphate buffer. Incubation was 15 min. at 37° C. The reaction was terminated and radioactivity was measured in a beta-counter. • 21. Apolipoprotein E (ApoE) Deficient Mouse Model
(§1) ApoE knockout mice and normal controls were a gift from the late Prof. Shlomo Eisenberg of Tel Aviv University, originally provided by Dr. J. L. Breslow (Plump et al., Cell 71:343-353 (1992)). The ApoE knockout mice were obtained from embryonic stem cells OLA 129 in C57B6×FVB mice (as described). Age-matched controls were inbred C57B6 mice. Groups of mouse pups were treated from birth until the age of 14 days. Daily subcutaneous injections included: […] saline (days 1 through 4), […] saline (days 5 through 10) and […] saline (days 11-14).
ChAT activity was measured according to published procedures (Formum et al., Neurochem. 24:407-409 (1975)).

[3] = tested on: ApoE-deficient mice; test: developmental milestones (placing response, cliff avoidance) in ApoE-deficient mice; format: in vivo; conditions: for acquisition of the placing response and the cliff avoidance response: daily injection; for marked improvement of placing response at the first day of treatment: tested 60 min. after injection
Source text: Animals (15-37 per experimental group, 5-8 per litter) were submitted to placing response assays daily following injection of: 1. saline (open circles, C57B6 mice=control, n=37, closed circles, ApoE deficient=ApoE, n=22). Experiments were repeated three times. Score indicates: 0=no reaction, 1=time to acquire a response shorter than 15 seconds; 2=time to acquire a response shorter than 10 seconds; 3=time to acquire a response shorter than 5 seconds. Age (days) indicate: the age of the tested animals in days. Results are mean±SEM.
as §1
Developmental milestones were measured using at least three dams with […] each for every experimental point. All observations were made between 12 noon and 4 pm. From day one through day six, mice were weighed and tested 60 min. after the daily injection. Placing is a behavioral parameter that is measured as the time elapsing between contact of the foot against the edge of an object and its placing on the top of the same object.
Further measurements in the Apo-E-deficient mouse included assessments of the time of onset of developmental milestones of behavior. […] A significant difference was observed among the treatment groups on the first day of testing (P<0.0001), with inbred C57B6 mice developing faster than the ApoE-deficient animals. […] NAP-treated animals were the fastest.

[4] = tested on: ADNF III mRNA; test: mimic polymerase chain reaction of ADNF III mRNA in mouse embryos incubated in vitro; format: cell-based; conditions: 9.5-day-old mouse embryos incubated in vitro for four hours, ratio with cyclophilin mRNA
[5] = tested on: astrocytes; test: western blot of secreted ADNF-like immunoreactivity in astrocyte conditioned medium; format: cell-based, rat
Source text: FIGS. 4A-B. FIG. 4A illustrates the western blot hybridization for immunological detection of the cloned ADNF III protein from bacterial extracts. Bacterial extracts expressing clone p25 were subjected to 10% SDS-polyacrylamide gel electrophoresis followed by western blot analysis with the antibodies used for cloning. […] CBB=Coomassie Brilliant Blue (protein) staining of the same lanes that were subjected western blot analysis. […] FIG. 4B illustrates immunological identification of a secreted ADNF III protein in astrocyte conditioned medium. Astrocyte-conditioned medium was prepared as described supra (see Brenneman & Gozes, J. Clin. Invest. 97:[…] (1996)), with a protein of a high molecular weight identified as the ADNF III molecule by western blot hybridization. SDS-polyacrylamide gel electrophoresis was performed as indicated in the above cited paper. Astroglial cultures obtained from newborn rat cerebral cortex were utilized. Cell extracts and conditioned medium from astrocytes that were treated or untreated with VIP (+, −) were subjected to electrophoresis through 10% polyacrylamide slab gel containing 0.1% SDS. Western blot analysis was performed with antibodies utilized for the cloning (anti-SALLRSIPA=α1).
a. Astrocytes: Astrocytes were prepared from 1-day-old (Sprague-Dawley) rats. […]

[6] = tested on: cerebral cortical cultures; test: neuroprotection against β-amyloid peptide (25-35) neurotoxicity in cerebral cortical cultures; format: cell-based, newborn rats; conditions: dilutions of a 1 mg/ml protein solution (E. coli extract) in PBS, 25 μM β-amyloid fragment 25-35, five days
[7] = tested on: neuronal cell death; test: neuroprotective effects of ADNF III (summary statement); format: cell-based
Source text: The present invention relates to the discovery of a nucleic acid encoding a novel neuroprotective polypeptide, i.e., Activity Dependent Neurotrophic Factor III (ADNF III), also called Activity Dependent Neuroprotective Protein (ADNP). […] Based on the recognized homology between ADNF I and hsp60, a heat shock protein, and PIF1, a DNA repair protein, these two epitopes were utilized to prepare antibodies which, in turn, were used to screen a mouse cDNA-expression library to identify the new neuroprotective polypeptide ADNF III. One mouse ADNF III cDNA clone consists of about 2418 base pairs of an open reading frame, which encodes an ADNF III polypeptide of about 806 amino acids, pI 5.85 (nucleotide sequence, SEQ ID NO:4; amino acid sequence, SEQ ID NO:3, see FIG. 1). An additional mouse cDNA has been cloned, encoding an ADNF III polypeptide of about 828 amino acids, pI 5.99 (nucleotide sequence, SEQ ID NO:54; amino acid sequence, SEQ ID NO:55; see FIG. 11). Human cDNAs encoding ADNF III have also been cloned (“H3” nucleotide sequence, SEQ ID NO:2; “H3” amino acid sequence, SEQ ID NO:1; “H3” nucleotide sequence, SEQ ID NO:56 and FIG. 12; “H3” amino acid sequence, SEQ ID NO:57 and FIG. 12; “H7” nucleotide sequence, SEQ ID NO:58 and FIG. 13; and “H7” amino acid sequence, SEQ ID NO:59 and FIG. 13). […] The promoter sequence for ADNF III has also been cloned (SEQ ID NO:60 and FIG. 14).

SVRLGLGGNAPVSIPQQS [reference compound]
neuroprotection (in words) ([1]; FIG. 6A/6B, toxin for the control curves not stated): inactive

VLGGGSALLRSIPA [ADNF-14]
brain ChAT activity compared with vehicle-treated or untreated ApoE-deficient mice [2]: did not significantly improve | level of performance reached in placing response [3]: never reached the level of performance of the NAP or ADNF-9 animals | day on which a significant difference between treated and untreated animals began to appear (placing response) ([3]; P<0.05): third postnatal day | acquisition of the placing response and the cliff avoidance response [3]: showed acceleration | marked improvement of placing response at the first day of treatment [3]: not

SALLRSIPA [ADNF-9]
brain ChAT activity compared with vehicle-treated or untreated ApoE-deficient mice [2]: did not significantly improve | placing response from the second postnatal day onwards ([3]; P<0.0001): best performers | acquisition of the placing response and the cliff avoidance response [3]: showed acceleration | marked improvement of placing response at the first day of treatment [3]: marked improvement

VIP: 28-amino acid peptide, secretagogue for ADNF
increase in ADNF III mRNA [4]: two-fold | increase in the secreted 60 KD ADNF-like immunoreactivity [5]: up to 2 fold

B1: clone 25: full length ADNF III expressed from clone 25, tested as E. coli protein extract (protein)
chain: MVNRLSIPKPNLNSTGVNMMSNVHLQQNNYGVKSVGQSYGVGQSVRLGLGGNAPVSIPQQSQSVKQLLPSGNGRSFGLGAEQRPPAAARYSLQTANTSLPPGQVKSPSVSQSQASRVLGQSSSKPPPAATGPPPSNHCATQKWKICTICNELFPENVYSVHFEKEHKAEKVPAVANYIMKIHNFTSKCLYCNRYLPTDTLLNHMLIHGLSCPYCRSTFNDVEKMAAHMRMVHIDEEMGPKTDSTLSFDLTLQQGSHTNIHLLVTTYNLRDAPAESVAYHAQNNAPVPPKPQPKVQEKADVPVKSSPQAAVPYKKDVGKTLCPLCFSILKGPISDALAHHLRERHQVIQTVHPVEKKLTYKCIHCLGVYTSNMTASTITLHLVHCRGVGKTQNGQDKTNAPSRLNQSPGLAPVKRTYEQMEFPLLKKRKLEEDADSPSCFEEKPEEPVVLALDPKGHEDDSYEARKSFLTKYFNKQPYPTRREIEKLAASLWLWKSDIASHFSNKRKKCVRDCEKYKPGVLLGFNMKELNKVKHEMDFDAEWLFENHDEKDSRVNASKTVDKKHNLGKEDDSFSDSFEHLEEESNGSGSPFDPVFEVEPKIPSDNLEEPVPKVIPEGALESEKLDQKEEEEEEEEEDGSKYETIHLTEEPAKLMHDASDSEVDQDDVVEWKDGASPSESGPGSQQISDFEDNTCEMKPGTWSDESSQSEDARSSKPAAKKKATVQDDTEQLKWKNSSYGKVEGFWSKDQSQWENASENAERLPNPQIEWQNSTIDSEDGEQFDSMTDGVADPMHGSLTGVKLSSQQA
modifications: left off: large carriers
notes: full length ADNF III expressed from clone 25, tested as E. coli protein extract
dilutions giving significant neuroprotection against β-amyloid [6]: > 10^−15 | dilutions giving significant neuroprotection against β-amyloid ([6]; listed as clone p25): 10^−14 | EC50 of neuroprotective effects [7]: in the femtomolar range | dilutions giving significant neuroprotection against tetrodotoxin [1]: 10^−15-10^−13 | dilutions giving significant neuroprotection against tetrodotoxin ([1]; listed as clone p25): 10^−14
